PMC7315563, “Bioactive fluorenes. Part III: 2,7-dichloro-9H-fluorene-based thiazolidinone and azetidinone analogues as anticancer and antimicrobial against multidrug resistant strains agents” (BMC Chemistry, 2020)
≈ marks a conversion by molar mass, not a printed value.

Assays:
[1] = system: MDA-MB-231 human breast cancer cells; experiment: cell viability assay (MTT); assay type: cell-based; conditions: 24 h; for viability at 1 µg/mL: read-out: Validity (%) for sample concentrations (µg/mL) 1; for viability at 10 µg/mL: read-out: Validity (%) for sample concentrations (µg/mL) 10; for viability at 31.25 µg/mL: read-out: Validity (%) for sample concentrations (µg/mL) 31.25; for viability at 62.5 µg/mL: read-out: Validity (%) for sample concentrations (µg/mL) 62.5; for viability at 125 µg/mL: read-out: Validity (%) for sample concentrations (µg/mL) 125; for viability at 250 µg/mL: read-out: Validity (%) for sample concentrations (µg/mL) 250; for viability at 500 µg/mL: read-out: Validity (%) for sample concentrations (µg/mL) 500
Experimental: (§1) WI-38 normal lung fibroblast cells, A549 lung cancer cells, and MDA-MB-231 breast cancer cells were obtained from VACSERA—Cell Culture Unit, Cairo, Egypt. The cell lines were originally obtained from the American Tissue Culture Collection (ATCC). WI-38, A549, and MDA-MB-231 cell lines were cultured in RPMI-1640 medium supplemented with 10% inactivate fetal bovine serum (FBS) and 1% penicillin/streptomycin were bought (Gibco, Invitrogen, CA). WI-38, A549, and MDA-MB-231 cells were seeded into 96-well plates (at a density of 5000 cells/well). On the following day, cells were treated with different concentrations (0, 1, 10, 31.25, 62.5, 125, 250, 500 µg/mL) of 16 fluorene derivatives in fresh medium and incubated for another 24 h. Cell viability was then assessed using the MTT assay (Sigma Aldrich, St. Louis, MO, USA), and the absorbance was read at 570 nm using an ELISA microplate reader (Molecular Devices, Downingtown, PA, USA).

[2] = system: WI-38 human normal fibroblast cells; experiment: cell viability assay (MTT); assay type: cell-based; conditions: 24 h; for viability at 31.25 µg/mL: read-out: Validity (%) for sample concentrations (µg/mL) 31.25; for viability at 62.5 µg/mL: 62.50 µg/mL, read-out: Validity (%) for sample concentrations (µg/mL) 62.50; for viability at 125 µg/mL: read-out: Validity (%) for sample concentrations (µg/mL) 125; for viability at 250 µg/mL: read-out: Validity (%) for sample concentrations (µg/mL) 250; for viability at 500 µg/mL: read-out: Validity (%) for sample concentrations (µg/mL) 500
Experimental: as §1

[3] = system: A549 human lung cancer cells; experiment: cell viability assay (MTT); assay type: cell-based; conditions: 24 h; for viability at 1 µg/mL: read-out: Validity (%) for sample concentrations (µg/mL) 1; for viability at 10 µg/mL: read-out: Validity (%) for sample concentrations (µg/mL) 10; for viability at 31.25 µg/mL: read-out: Validity (%) for sample concentrations (µg/mL) 31.25; for viability at 62.5 µg/mL: 62.50 µg/mL, read-out: Validity (%) for sample concentrations (µg/mL) 62.50; for viability at 125 µg/mL: read-out: Validity (%) for sample concentrations (µg/mL) 125; for viability at 250 µg/mL: read-out: Validity (%) for sample concentrations (µg/mL) 250; for viability at 500 µg/mL: read-out: Validity (%) for sample concentrations (µg/mL) 500; for viability at 1000 µg/mL: read-out: Validity (%) for sample concentrations (µg/mL) 1000
Experimental: as §1, with “On the following day, cells were treated with different concentrations (0, 1, 10, 31.25, 62.5, 125, 250, 500 µg/mL) of 16 fluorene derivatives in fresh medium and incubated for another 24 h.” left out

[4] = system: Staphylococcus aureus (S. aureus), multidrug resistant clinical isolate; experiment: agar well diffusion assay; assay type: cell-based; conditions: Staphylococcus aureus; S. aureus; 500 µg/mL of tested compound; 24 h
Source text: All microbial strains were kindly provided from the department of Medical Microbiology and Immunology faculty of Medicine Assiut University, these clinical isolates were obtained from clinical cases of infections admitted to Assiut University hospital as urinary tract infections, corneal ulcers, bacterial and fungal pneumonia, otomycosis, oral thrush and wound infections.
The clinical isolates used were multidrug resistant strains, they were resistant to β lactam (penicillin, amoxacillin, oxacillin), cephalosporins (cefazolin, cefaclor and cefepime) and macrolides (erythromycin and clarithromycin), they included Gram positive bacteria as Staphylococcus aureus (S. aureus), Methicillin-resistant Staphylococcus aureus (MRSA), Streptococcus pneumoniae (S. pneumoniae), and Gram negative bacteria as Escherichia coli (E. coli), Klebsiella pneumoniae (K. pneumoniae), Pseudomonas aeruginosa (P. aeruginosa), and Acinetobacter baumannii (A. baumannii). The fungal strains that were tested are Aspergillus flavus (A. flavus), A. niger (A. niger) and Candida albicans (C. albicans).
The antimicrobial activity of the fluorene derivatives was initially evaluated by agar well diffusion assay. Mueller–Hinton agar (CM0337) was poured into Petri dishes at 50–60 °C and left to solidify for 15 min. Subsequently, overnight microbial suspensions of tested strains was adjusted to turbidity of 0.5 McFarland Standard, which equals to 1–2 × 10^8 CFU/mL for bacteria and 1–5 × 10^6 for fungi. The microbial inoculums were then diluted in 1:100 ratio in case of bacteria and 1:10 ratio in case of fungi in order to get 1–5 × 10^5 CFU/mL. a sterile cotton swab was dipped into the adjusted microbial suspension and the Mueller–Hinton agar plates were inoculated by evenly streaking cotton swab over the agar medium. Then wells with a diameter of 0.5 cm were cut in the medium with a sterile cork borer. Stock solutions of the flourene derivatives were diluted in DMSO 1% to get 500 μg/mL concentrations. The tested flourene derivatives and controls (50 μL) were dispensed into the wells. The plates were incubated for 24 h at 37 °C for bacteria and C. albicans while at 25 °C for A. falvus and A. niger. The diameters of zones of inhibition (ZOI) around the wells were measured in mm. Following control agents were used: positive control agents—vancomycin (50 μg/mL) for Gram positive bacteria, gentamicin (10 μg/mL) (for Gram negative bacteria) and fluconazole 25 μg/mL for fungi and negative control agent is 1% DMSO.

Work on COc1ccc(C2SCC(=O)N2c2nc(-c3cc(Cl)cc4c3-c3ccc(Cl)cc3C4)cs2)cc1 (stereo not shown) [5b, 3-(4-(2,7-Dichloro-9H-fluoren-4-yl)thiazol-2-yl)-2-(4-methoxyphenyl)thiazolidin-4-one] yielded a viability at 1 µg/mL [1] of 97.8%, a viability at 10 µg/mL [1] of 97.4% and a viability at 31.25 µg/mL [1] of 90.8%. For the same molecule, the viability at 62.5 µg/mL [1] was 88.6%, the viability at 125 µg/mL [1] was 87.3% and the viability at 250 µg/mL [1] was 83.6%. For the same molecule, the viability at 500 µg/mL [1] was 81.5%, the IC50 [1] was over 500 µg/mL and the viability at 31.25 µg/mL [2] was 99.4%. The viability at 62.5 µg/mL [2] was 94.4%, the viability at 125 µg/mL [2] was 91.3% and the viability at 250 µg/mL [2] was 81.2%. For the same molecule, the viability at 500 µg/mL [2] was 79%, the IC50 [2] was over 500 µg/mL and the viability at 1 µg/mL [3] was 91.2%. The viability at 10 µg/mL [3] was 85.4%, the viability at 31.25 µg/mL [3] was 84% and the viability at 62.5 µg/mL [3] was 67.8%. For the same molecule, the viability at 125 µg/mL [3] was 64.3%, the viability at 250 µg/mL [3] was 57.1% and the viability at 500 µg/mL [3] was 44.2%. It also gave a viability at 1000 µg/mL [3] of 17.8%, an IC50 [3] of 402 µg/mL (≈ 765 µM) and a melting point of 74 to 76 °C. The zone of inhibition at 500 µg/mL [4] was 4 mm.

O=C(O)c1ccc(C2C(Cl)C(=O)N2c2nc(-c3cc(Cl)cc4c3-c3ccc(Cl)cc3C4)cs2)cc1 (stereo not shown) [6g, 4-(3-Chloro-1-(4-(2,7-dichloro-9H-fluoren-4-yl)thiazol-2-yl)-4-oxoazetidin-2-yl)benzoic acid] gave a viability at 1 µg/mL [1] of 96.7%, a viability at 10 µg/mL [1] of 93.9% and a viability at 31.25 µg/mL [1] of 91.2%. The viability at 62.5 µg/mL [1] was 82.9%, the viability at 125 µg/mL [1] was 71.1% and the viability at 250 µg/mL [1] was 65.5%. For the same molecule, the viability at 500 µg/mL [1] was 55.6%, the IC50 [1] was over 500 µg/mL and the viability at 31.25 µg/mL [2] was 73.9%. The viability at 62.5 µg/mL [2] was 42%, the viability at 125 µg/mL [2] was 37.4% and the viability at 250 µg/mL [2] was 35.7%. The viability at 500 µg/mL [2] was 30.6%, the IC50 [2] was 40 µg/mL (≈ 73.8 µM) and the viability at 1 µg/mL [3] was 94.5%. It also gave a viability at 10 µg/mL [3] of 90.1%, a viability at 31.25 µg/mL [3] of 86.9% and a viability at 62.5 µg/mL [3] of 73.5%. For the same molecule, the viability at 125 µg/mL [3] was 68.9%, the viability at 250 µg/mL [3] was 63.1% and the viability at 500 µg/mL [3] was 18.4%. It also gave a viability at 1000 µg/mL [3] of 14.4%, an IC50 [3] of 308 µg/mL (≈ 568 µM) and a melting point of 125 to 127 °C.

With CC(=O)O[C@H]1C(=O)[C@@]2(C)[C@H]([C@H](OC(=O)c3ccccc3)[C@]3(O)C[C@H](OC(=O)[C@H](O)[C@@H](NC(=O)c4ccccc4)c4ccccc4)C(C)=C1C3(C)C)[C@]1(OC(C)=O)CO[C@@H]1C[C@@H]2O [Taxol, reference compound] the IC50 [1] was 40 µg/mL (≈ 46.8 µM), the IC50 [2] was 41 µg/mL (≈ 48 µM) and the IC50 [3] was 2.3 µg/mL (≈ 2.69 µM).

With O=C1CSC(c2cccs2)N1c1nc(-c2cc(Cl)cc3c2-c2ccc(Cl)cc2C3)cs1 (stereo not shown) [5k, 3-(4-(2,7-Dichloro-9H-fluoren-4-yl)thiazol-2-yl)-2-(thiophen-2-yl)thiazolidin-4-one] the viability at 1 µg/mL [1] was 92.3%, the viability at 10 µg/mL [1] was 85.8% and the viability at 31.25 µg/mL [1] was 68.7%. The viability at 62.5 µg/mL [1] was 60.8%, the viability at 125 µg/mL [1] was 56.7% and the viability at 250 µg/mL [1] was 50.6%. For the same molecule, the viability at 500 µg/mL [1] was 43%, the IC50 [1] was 330 µg/mL (≈ 658 µM) and the viability at 31.25 µg/mL [2] was 80.8%. The viability at 62.5 µg/mL [2] was 71.4%, the viability at 125 µg/mL [2] was 64.8% and the viability at 250 µg/mL [2] was 51.4%. The viability at 500 µg/mL [2] was 41.9%, the IC50 [2] was 288 µg/mL (≈ 574 µM) and the viability at 1 µg/mL [3] was 95.2%. For the same molecule, the viability at 10 µg/mL [3] was 92.3%, the viability at 31.25 µg/mL [3] was 85.9% and the viability at 62.5 µg/mL [3] was 83.9%. For the same molecule, the viability at 125 µg/mL [3] was 79.6%, the viability at 250 µg/mL [3] was 76.9% and the viability at 500 µg/mL [3] was 60.9%. It also gave a viability at 1000 µg/mL [3] of 22.6%, an IC50 [3] of 613 µg/mL (≈ 1220 µM) and a melting point of 165 to 167 °C.
